Source: publication PMC9814587, “Actinomycetes-derived imine reductases with a preference towards bulky amine substrates” (Communications Chemistry, 2022)

Assays:
[1] = target: T1, AspRedAm (Aspergillus oryzae, UniProt Q2TW47); assay: reductive amination, HPLC or LC-MS conversion; format: biochemical; details: 5 mM each, NADP+/GDH/glucose recycling, pH 7.0
T1 construct: gene AO090010000708; N-terminal His tag, expressed in E. coli BL21(DE3), Ni-NTA purified; dimer
T1 sequence (Q2TW47 1-295): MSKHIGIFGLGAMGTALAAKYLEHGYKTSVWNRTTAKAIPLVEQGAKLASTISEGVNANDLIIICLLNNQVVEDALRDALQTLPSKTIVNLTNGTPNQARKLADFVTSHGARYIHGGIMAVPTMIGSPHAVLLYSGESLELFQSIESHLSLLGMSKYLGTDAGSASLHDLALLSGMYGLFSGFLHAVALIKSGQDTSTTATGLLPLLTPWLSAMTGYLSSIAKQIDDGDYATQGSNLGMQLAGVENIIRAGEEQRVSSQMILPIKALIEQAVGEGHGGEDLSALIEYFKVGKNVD

[2] = target: T2, IR-G02 (Streptomyces albidoflavus, UniProt Z9MF94CC36); assay: X-ray crystallography; format: binding; details: co-crystallised with 10 eq NADP+, pH 7.5, 18 °C
T2 construct: N-terminal His6 tag, expressed in E. coli BL21(DE3), Ni-NTA and SEC purified; homodimer with active site at the interface
T2 sequence (Z9MF94CC36 21-319): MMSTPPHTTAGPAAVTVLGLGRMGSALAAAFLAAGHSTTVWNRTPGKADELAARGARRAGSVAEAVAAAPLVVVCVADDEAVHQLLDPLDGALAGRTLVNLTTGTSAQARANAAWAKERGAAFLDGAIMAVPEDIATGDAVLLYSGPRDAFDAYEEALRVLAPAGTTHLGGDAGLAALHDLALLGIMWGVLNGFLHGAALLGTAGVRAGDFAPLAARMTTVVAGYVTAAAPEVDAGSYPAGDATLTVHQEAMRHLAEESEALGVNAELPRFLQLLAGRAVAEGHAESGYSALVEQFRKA

[3] = target: IR-G02 (imine reductase from Streptomyces albidoflavus) (Streptomyces albidoflavus); assay: crystal structure; apo IR-G02; sitting-drop vapour diffusion at 18 °C; 0.2 M ammonium acetate, 0.1 M Bis-Tris 5.5, 25 % w/v PEG 3350; protein 20 mg ml^-1

For `NC1CC1` [A, cyclopropylamine], the conversion ([1]; amine donor with cyclohexanone) was greater than 90%.

`NC(=O)c1ccc[n+]([C@@H]2O[C@H](COP(=O)(O)OP(=O)(O)OC[C@H]3O[C@@H](n4cnc5c(N)ncnc54)[C@H](OP(=O)(O)O)[C@@H]3O)[C@@H](O)[C@H]2O)c1` [NADP^+] was tested, and the X-ray crystallography [2] was “NADP^+ complex of IR-G02 (PDB ID: 7XR5)”.

`O=C1CCCCC1` [compound 1, cyclohexanone] was tested, and the conversion ([1]; carbonyl donor with cyclopropylamine) was greater than 90%.

Compound “IR-G02 (imine reductase from Streptomyces albidoflavus) (enzyme)” has a stoichiometry N [3] of 2.
